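Where inhibition never reached the appropriate level, the endpoint shown equals the highest concentration tested. Otherwise, values were interpolated linearly from a five-concentration, 48-hour dose response in 96-well plates. GI50 = concentration required for 50% inhibition of growth. TGI denotes the concentration required for complete inhibition of growth.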
Columns and labels:
Experiment in all cases: inhibition of tumour cell growth, NCI panel, 48 h
[1] = tested on: RXF 393 renal
[2] = tested on: SF-268 CNS
[3] = tested on: 786-0 renal
[4] = tested on: KM12 colon
[5] = tested on: SK-OV-3 ovarian
[6] = tested on: MCF7 breast
[7] = tested on: HCT-15 colon
[8] = tested on: HS 578T breast
[9] = tested on: MDA-MB-231 breast
[10] = tested on: SK-MEL-2 melanoma
[11] = tested on: RPMI-8226 leukemia
[12] = tested on: SR leukemia
[13] = tested on: MDA-MB-435
[14] = tested on: CAKI-1 renal
[15] = tested on: COLO 205 colon
[16] = tested on: NCI-H460 lung
[17] = tested on: OVCAR-3 ovarian
[18] = tested on: UACC-62 melanoma
[19] = tested on: T-47D breast
[20] = tested on: HOP-62 NSCLC
[21] = tested on: SK-MEL-5 melanoma
[22] = tested on: HL-60(TB) leukemia
[23] = tested on: A498 renal
[24] = tested on: SF-295 CNS
[25] = tested on: U251 CNS
[26] = tested on: ACHN renal
[27] = tested on: HOP-92 NSCLC

SMILES: CCCCCc1c(C)[nH]c(/C=c2\[nH]/c(=C3/C=c4ccccc4=N3)cc2OC)c1C
- GI50 [1]: 86 nM
- TGI [1]: 755 nM
- GI50 [2]: 77 nM
- TGI [2]: 2430 nM
- GI50 [3]: 49 nM
- TGI [3]: 242 nM
- GI50 [4]: 51.1 nM
- TGI [4]: > 100000 nM
- GI50 [5]: 449 nM
- TGI [5]: 4550 nM
- GI50 [6]: 42.5 nM
- TGI [6]: 1430 nM
- GI50 [7]: 33.7 nM
- TGI [7]: 1310 nM
- GI50 [8]: 84.6 nM
- TGI [8]: 883 nM
- GI50 [9]: 26.6 nM
- TGI [9]: 232 nM
- GI50 [10]: 39.4 nM
- TGI [10]: 193 nM
- GI50 [11]: 61.4 nM
- TGI [11]: 682 nM
- GI50 [12]: 33.5 nM
- TGI [12]: 529 nM
- GI50 [13]: 45.5 nM
- TGI [13]: 1160 nM
- GI50 [14]: 42.5 nM
- TGI [14]: 1560 nM
- GI50 [15]: 56.8 nM
- TGI [15]: 494 nM
- GI50 [16]: 61.4 nM
- TGI [16]: 11200 nM
- GI50 [17]: 109 nM
- TGI [17]: 699 nM
- GI50 [18]: 62.4 nM
- TGI [18]: 355 nM
- GI50 [19]: 58.8 nM
- TGI [19]: 698 nM
- GI50 [20]: 76.7 nM
- TGI [20]: 438 nM
- GI50 [21]: 32.4 nM
- TGI [21]: 110 nM
- GI50 [22]: 124 nM
- TGI [22]: 3630 nM
- GI50 [23]: 94.4 nM
- TGI [23]: 1750 nM
- GI50 [24]: 90.2 nM
- TGI [24]: 452 nM
- GI50 [25]: 67 nM
- TGI [25]: 627 nM
- GI50 [26]: 122 nM
- TGI [26]: 1290 nM
- GI50 [27]: 23.6 nM
- TGI [27]: 203 nM

— PubChem BioAssay (NCI)
